Test results: ChEMBL document CHEMBL2040771, “Discovery of a potent inhibitor of anaplastic lymphoma kinase with in vivo antitumor activity” (ACS Med Chem Lett, 2010)
Calls of active or inactive are those of the source. The rule behind the calls is not given here.

Experiments:
[1] = tested on: KARPAS-299; assay: Induction apoptosis in ALK-positive human KARPAS299 cells assessed as activation of caspase 3/7 by fluorometric assay; assay type: functional, cell-based
[2] = tested on: Mus musculus; assay: Clearance with respect to hepatic blood flow in SCID mouse at 1 mg/kg, iv; assay type: ADME, organism-based, Liver; design: dose 1 mg/kg, route intravenous; settings: in vivo
[3] = biological target: Ribosomal protein S6 kinase alpha-1 (Homo sapiens) (UniProt Q15418); assay: Inhibition of RPS6KA1 at 1 uM
[4] = biological target: Ribosomal protein S6 kinase alpha-2 (Homo sapiens) (UniProt Q15349); assay: Inhibition of RPS6KA2 at 1 uM
[5] = biological target: Tyrosine-protein kinase Srms (Homo sapiens) (UniProt Q9H3Y6); assay: Inhibition of SRMS at 1 uM
[6] = biological target: Tyrosine-protein kinase Srms (Homo sapiens) (UniProt Q9H3Y6); assay: Inhibition of SRMS at 0.1 uM
[7] = biological target: Serine/threonine-protein kinase 33 (Homo sapiens) (UniProt Q9BYT3); assay: Inhibition of STK33 at 1 uM
[8] = biological target: Non-receptor tyrosine-protein kinase TNK1 (Homo sapiens) (UniProt Q13470); assay: Inhibition of TNK1 at 1 uM
[9] = tested on: SUP-M2; assay: Antitumor activity against ALK-positive human SUP-M2 cells xenografted in po dosed SCID mouse bid after 12 days; assay type: functional, organism-based
[10] = tested on: Canis familiaris; assay: Clearance with respect to hepatic blood flow in beagle dog at 1 mg/kg, iv; assay type: ADME, organism-based, Canis lupus familiaris, Liver; design: dose 1 mg/kg, route intravenous; settings: in vivo
[11] = Volume of distribution in beagle dog at 1 mg/kg, iv; assay type: ADME, organism-based, Canis lupus familiaris; design: dose 1 mg/kg, route intravenous; settings: in vivo
[12] = Plasma protein binding in mouse; assay type: ADME, cell-free; settings: read-out: PPB (converted)
[13] = Plasma concentration in SCID mouse xenografted with ALK-positive human SUP-M2 cells at 55 mg/kg, po bid for 12 days; assay type: ADME, organism-based; design: dose 55 mg/kg, route oral
[14] = Drug uptake in tumor lysates in SCID mouse xenografted with ALK-positive human SUP-M2 cells at 55 mg/kg, po bid for 12 days; assay type: ADME, organism-based, Neoplasm; design: dose 55 mg/kg, route oral; settings: read-out: Drug uptake
[15] = Drug uptake in tumor lysates in SCID mouse xenografted with ALK-positive human SUP-M2 cells at 10 mg/kg, po bid for 12 days; assay type: ADME, organism-based, Neoplasm; design: dose 10 mg/kg, route oral; settings: read-out: Drug uptake
[16] = tested on: Receptor-type tyrosine-protein kinase FLT3 (Homo sapiens), P36888 [D835Y]; assay: Inhibition of FLT3 D835Y mutant at 0.1 uM
[17] = biological target: Fibroblast growth factor receptor 4 (Homo sapiens) (UniProt P22455); assay: Inhibition of FGFR4 at 0.1 uM
[18] = biological target: Tyrosine-protein kinase Fer (Homo sapiens) (UniProt P16591); assay: Inhibition of FER at 1 uM
[19] = biological target: Focal adhesion kinase 1 (Homo sapiens) (UniProt Q05397); assay: Inhibition of FAK at 0.1 uM
[20] = biological target: Epidermal growth factor receptor (Homo sapiens) (UniProt P00533); assay: Inhibition of EGFR at 0.1 uM
[21] = biological target: Protein-tyrosine kinase 6 (Homo sapiens) (UniProt Q13882); assay: Inhibition of BRK at 1 uM
[22] = biological target: Vascular endothelial growth factor receptor 3 (Homo sapiens) (UniProt P35916); assay: Inhibition of FLT4 at 0.1 uM
[23] = biological target: Mitogen-activated protein kinase 9 (Homo sapiens) (UniProt P45984); assay: Inhibition of JNK2 at 1 uM
[24] = biological target: Dual specificity mitogen-activated protein kinase kinase 4 (Homo sapiens) (UniProt P45985); assay: Inhibition of MEK4 at 1 uM
[25] = biological target: Serine/threonine-protein kinase 3 (Homo sapiens) (UniProt Q13188); assay: Inhibition of MST2 at 0.1 uM
Chain of Serine/threonine-protein kinase 3 (Homo sapiens) (Q13188 whole entry): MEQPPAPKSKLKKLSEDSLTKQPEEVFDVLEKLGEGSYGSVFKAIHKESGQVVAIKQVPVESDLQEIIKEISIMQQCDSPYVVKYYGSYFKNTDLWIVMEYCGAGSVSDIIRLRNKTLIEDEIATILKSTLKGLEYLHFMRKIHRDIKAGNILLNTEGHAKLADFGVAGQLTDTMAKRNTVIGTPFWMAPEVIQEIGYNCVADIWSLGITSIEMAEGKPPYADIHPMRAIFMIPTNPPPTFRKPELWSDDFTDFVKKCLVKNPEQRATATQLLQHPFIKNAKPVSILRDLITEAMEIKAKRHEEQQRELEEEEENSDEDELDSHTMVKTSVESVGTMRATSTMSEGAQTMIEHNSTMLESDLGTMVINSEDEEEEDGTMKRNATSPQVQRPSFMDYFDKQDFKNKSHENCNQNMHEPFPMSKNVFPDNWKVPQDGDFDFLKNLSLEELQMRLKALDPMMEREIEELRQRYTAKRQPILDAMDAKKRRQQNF

Chain of Tyrosine-protein kinase Srms (Homo sapiens) (Q9H3Y6 whole entry): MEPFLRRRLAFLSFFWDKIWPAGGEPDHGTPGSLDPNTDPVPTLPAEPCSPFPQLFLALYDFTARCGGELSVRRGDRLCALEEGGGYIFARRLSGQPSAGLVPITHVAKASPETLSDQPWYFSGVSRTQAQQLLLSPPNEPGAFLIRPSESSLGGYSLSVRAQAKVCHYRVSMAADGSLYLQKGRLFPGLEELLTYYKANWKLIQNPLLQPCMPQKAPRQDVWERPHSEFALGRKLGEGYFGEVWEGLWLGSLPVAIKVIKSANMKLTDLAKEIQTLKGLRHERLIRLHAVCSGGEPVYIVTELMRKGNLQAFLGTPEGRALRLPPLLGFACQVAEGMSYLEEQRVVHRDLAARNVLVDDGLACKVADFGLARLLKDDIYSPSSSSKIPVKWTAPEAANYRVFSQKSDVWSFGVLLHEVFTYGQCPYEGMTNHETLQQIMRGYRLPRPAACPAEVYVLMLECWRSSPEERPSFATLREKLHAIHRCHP
Chain of Ribosomal protein S6 kinase alpha-1 (Homo sapiens) (Q15418 whole entry): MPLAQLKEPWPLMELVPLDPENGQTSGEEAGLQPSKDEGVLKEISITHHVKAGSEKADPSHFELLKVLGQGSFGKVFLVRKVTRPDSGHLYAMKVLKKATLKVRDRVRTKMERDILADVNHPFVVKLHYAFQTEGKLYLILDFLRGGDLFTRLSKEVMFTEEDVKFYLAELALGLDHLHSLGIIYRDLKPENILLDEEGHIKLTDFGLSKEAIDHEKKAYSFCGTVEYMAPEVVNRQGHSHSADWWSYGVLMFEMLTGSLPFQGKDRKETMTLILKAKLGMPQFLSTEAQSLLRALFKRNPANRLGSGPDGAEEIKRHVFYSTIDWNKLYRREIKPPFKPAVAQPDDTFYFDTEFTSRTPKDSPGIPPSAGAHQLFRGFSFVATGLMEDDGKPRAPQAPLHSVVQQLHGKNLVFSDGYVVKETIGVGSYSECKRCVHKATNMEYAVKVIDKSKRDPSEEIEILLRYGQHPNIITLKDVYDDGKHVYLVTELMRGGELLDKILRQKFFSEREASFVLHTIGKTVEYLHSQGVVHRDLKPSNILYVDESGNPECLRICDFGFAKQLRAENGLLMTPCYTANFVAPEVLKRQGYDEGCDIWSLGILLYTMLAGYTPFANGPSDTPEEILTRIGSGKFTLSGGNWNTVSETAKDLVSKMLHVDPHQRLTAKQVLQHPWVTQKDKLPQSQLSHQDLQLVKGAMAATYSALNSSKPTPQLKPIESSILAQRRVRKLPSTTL
Chain of Vascular endothelial growth factor receptor 3 (Homo sapiens) (P35916 whole entry): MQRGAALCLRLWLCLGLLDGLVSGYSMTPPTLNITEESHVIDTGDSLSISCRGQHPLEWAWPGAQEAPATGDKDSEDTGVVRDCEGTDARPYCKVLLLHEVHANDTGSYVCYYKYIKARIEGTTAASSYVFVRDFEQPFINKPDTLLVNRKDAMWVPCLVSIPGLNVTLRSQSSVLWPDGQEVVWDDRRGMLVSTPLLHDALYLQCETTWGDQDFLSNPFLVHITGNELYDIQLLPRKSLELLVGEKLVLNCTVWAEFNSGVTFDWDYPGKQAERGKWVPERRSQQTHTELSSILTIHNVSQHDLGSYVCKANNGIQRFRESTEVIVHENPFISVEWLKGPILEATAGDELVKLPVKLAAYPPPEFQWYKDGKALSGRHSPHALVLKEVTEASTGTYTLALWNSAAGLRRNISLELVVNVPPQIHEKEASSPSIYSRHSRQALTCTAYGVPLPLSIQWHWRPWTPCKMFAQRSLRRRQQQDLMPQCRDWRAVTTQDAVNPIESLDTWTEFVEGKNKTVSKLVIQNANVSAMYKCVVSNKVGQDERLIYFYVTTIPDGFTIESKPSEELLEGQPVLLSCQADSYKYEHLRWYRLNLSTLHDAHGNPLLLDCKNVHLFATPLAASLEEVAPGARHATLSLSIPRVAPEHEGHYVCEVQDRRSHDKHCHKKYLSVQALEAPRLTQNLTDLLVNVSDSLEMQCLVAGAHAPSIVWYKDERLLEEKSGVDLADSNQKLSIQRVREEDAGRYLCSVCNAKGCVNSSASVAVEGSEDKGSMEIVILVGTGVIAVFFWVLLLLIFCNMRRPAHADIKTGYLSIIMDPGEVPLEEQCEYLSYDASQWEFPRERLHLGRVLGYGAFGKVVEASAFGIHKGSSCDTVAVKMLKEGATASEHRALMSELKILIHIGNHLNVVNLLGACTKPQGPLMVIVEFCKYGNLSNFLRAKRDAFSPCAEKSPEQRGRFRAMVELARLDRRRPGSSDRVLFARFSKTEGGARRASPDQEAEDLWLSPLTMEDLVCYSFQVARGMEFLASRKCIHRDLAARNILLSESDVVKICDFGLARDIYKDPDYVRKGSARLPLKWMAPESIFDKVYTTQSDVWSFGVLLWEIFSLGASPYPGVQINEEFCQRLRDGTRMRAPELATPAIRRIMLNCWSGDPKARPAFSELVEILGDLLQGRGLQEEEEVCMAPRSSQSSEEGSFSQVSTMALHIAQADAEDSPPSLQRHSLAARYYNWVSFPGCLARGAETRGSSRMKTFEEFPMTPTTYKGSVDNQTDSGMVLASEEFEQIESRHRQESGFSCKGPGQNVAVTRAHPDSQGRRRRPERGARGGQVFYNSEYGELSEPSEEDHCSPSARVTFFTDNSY
Chain of Focal adhesion kinase 1 (Homo sapiens) (Q05397 2-1052 limits assumed): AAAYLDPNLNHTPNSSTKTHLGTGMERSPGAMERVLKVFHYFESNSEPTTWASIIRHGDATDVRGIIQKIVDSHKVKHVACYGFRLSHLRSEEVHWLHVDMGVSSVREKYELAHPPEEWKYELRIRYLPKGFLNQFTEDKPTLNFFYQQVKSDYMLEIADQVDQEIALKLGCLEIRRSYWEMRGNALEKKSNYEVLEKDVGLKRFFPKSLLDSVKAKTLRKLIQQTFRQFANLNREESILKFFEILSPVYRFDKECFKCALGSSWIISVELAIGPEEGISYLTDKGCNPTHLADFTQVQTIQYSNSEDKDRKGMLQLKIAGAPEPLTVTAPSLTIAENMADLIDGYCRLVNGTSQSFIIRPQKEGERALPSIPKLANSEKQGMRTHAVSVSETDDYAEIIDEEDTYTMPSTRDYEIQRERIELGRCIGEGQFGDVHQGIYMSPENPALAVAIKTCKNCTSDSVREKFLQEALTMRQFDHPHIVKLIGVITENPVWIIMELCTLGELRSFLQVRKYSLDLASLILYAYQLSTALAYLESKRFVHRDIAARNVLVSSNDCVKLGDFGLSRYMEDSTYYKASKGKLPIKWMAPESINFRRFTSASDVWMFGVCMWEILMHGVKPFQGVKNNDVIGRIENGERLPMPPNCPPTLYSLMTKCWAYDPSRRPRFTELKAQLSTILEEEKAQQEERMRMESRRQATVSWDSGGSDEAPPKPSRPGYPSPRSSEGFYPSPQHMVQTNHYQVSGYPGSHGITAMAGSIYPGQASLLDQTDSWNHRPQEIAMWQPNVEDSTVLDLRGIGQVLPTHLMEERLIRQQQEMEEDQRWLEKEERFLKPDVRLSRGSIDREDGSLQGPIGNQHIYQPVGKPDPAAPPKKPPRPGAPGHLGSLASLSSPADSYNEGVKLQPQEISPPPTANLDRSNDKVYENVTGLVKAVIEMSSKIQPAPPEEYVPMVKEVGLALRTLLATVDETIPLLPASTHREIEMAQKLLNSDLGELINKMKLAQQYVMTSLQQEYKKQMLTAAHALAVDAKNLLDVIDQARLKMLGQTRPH
Chain of Non-receptor tyrosine-protein kinase TNK1 (Homo sapiens) (Q13470 whole entry): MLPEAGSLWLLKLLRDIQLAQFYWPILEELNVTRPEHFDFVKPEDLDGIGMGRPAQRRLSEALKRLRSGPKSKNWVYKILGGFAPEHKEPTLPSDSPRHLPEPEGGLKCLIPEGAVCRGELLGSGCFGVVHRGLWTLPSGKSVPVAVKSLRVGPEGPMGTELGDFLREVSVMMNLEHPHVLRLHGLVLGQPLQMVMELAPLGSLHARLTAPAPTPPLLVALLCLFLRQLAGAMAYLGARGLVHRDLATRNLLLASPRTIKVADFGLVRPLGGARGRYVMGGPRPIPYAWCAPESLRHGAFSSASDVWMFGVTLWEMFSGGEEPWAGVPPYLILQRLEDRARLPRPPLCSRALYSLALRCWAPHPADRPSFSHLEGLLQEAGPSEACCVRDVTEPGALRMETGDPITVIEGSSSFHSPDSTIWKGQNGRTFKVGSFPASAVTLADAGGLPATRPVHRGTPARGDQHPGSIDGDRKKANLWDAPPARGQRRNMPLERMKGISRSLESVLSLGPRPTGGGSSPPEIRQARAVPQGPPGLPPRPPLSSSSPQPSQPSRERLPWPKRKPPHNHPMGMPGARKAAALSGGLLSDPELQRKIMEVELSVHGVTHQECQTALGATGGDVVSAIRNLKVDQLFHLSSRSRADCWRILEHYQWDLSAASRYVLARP

CL [2]: 41%
inhibition [3]: 100%
inhibition [4]: 100%
inhibition [5]: 94%
inhibition [6]: < 50%
inhibition [7]: 99%
inhibition [8]: 100%
CL [10]: 58%
Vd [11]: 2.1 L/kg
fraction unbound [12]: 0.08
concentration at 288 h [13]: 3700 ng/mL
concentration at 288 h [14]: 1180 ng/g
concentration at 288 h [15]: 3560 ng/g
inhibition [16]: 90%
inhibition [17]: < 50%
inhibition [18]: 100%
inhibition [19]: 72%
inhibition [20]: < 50%
inhibition [21]: 100%
inhibition [22]: 72%
inhibition [23]: 92%
inhibition [24]: 90%
inhibition [25]: < 50%
Structure (SMILES): CCN1C(=O)CCCc2c1ccc(Nc1ncc(Cl)c(N[C@H]3[C@@H](C(N)=O)[C@@H]4C=C[C@H]3C4)n1)c2OC
Activity [1]: Active
Activity [9]: Dose-dependent effect
